Measured values reported in US8278315B2, “Radiotherapy method using x-rays” (priority 2002, dated 2012).

Columns and labels:
[1] = tested on: neuroblastoma lines; test: nuclear chemotherapy: ^77BrdC on neuroblastoma lines; assay type: cell-based
Protocol: An investigation of a method called “nuclear chemotherapy” was done many years previously at Sloan-Kettering Research Institute in New York, by Dr. Chia-Gee Wang and Dr. Lawrence Helson. The research was done using ^77BrdC, where ^77Br (half-life at 57 hours) would undergo a K-capture and deliver 10^6 or more Gy at a small distance. The […] of BrdC to BrdU can be blocked by the non-toxic H4U and therefore excluding BrdC from being incorporated into the DNA pool. Certain transformed cells, on the other hand, would make use of a more primitive kinase to bypass the H4U blockage, and incorporate BrdC to form BrdU. The ^77Br was made by adding an a particle to ^75As in a facility in the U.K. ^77Br was obtained in liquid solution, and ^77BrdC was made. […] The Auger electrons from the ^77BrdU delivered such a high dose of the DNA duplex that no cellular repair was possible.

[2] = mouse studies, compared with DOX; cited from earlier work
[3] = tested on: DOX-resistant cells; details: cited from earlier work
[4] = tested on: B-DNA; details: cited from earlier work
[5] = DOX-treated patients; cited from earlier work
[6] = loss of UV absorbance at 260 nm after X-rays from a silver target; assay type: physicochemical; details: 20 μg/ml, per 100 Rads
Source text: The phenanthroline groups on Dichlorotris(1,10-phenanthroline) ruthenium (II) hydrate absorb in the UV region with a peak absorbance at or near 260 nm. Loss or damage to these groups can be estimated by determining the UV absorbance before and after treatment with X-rays generated by a silver target which is optimum for Ru. Over several experiments replicating treatments with 100 Rad or using increasing amounts of X-rays between 50 Rads and 1000 Rads a loss of UV absorbance at 260 nm of 0.5% to 1% per 100 Rads has been determined.

With `Nc1nc(=O)n(C2CC(O)C(CO)O2)cc1[77Br]` (stereo not drawn) [^77BrdC] the “effect on sensitive tumor lines” value ([1]; sensitive lines, no immediate cell death) was “stopped mitosis” and the “sensitivity of neuroblastoma lines” value ([1]; ten neuroblastoma lines tested, H4U blockage) was “two of the ten lines were sensitive”.
In the case of `C[C@@H]1O[C@@H](O[C@H]2C[C@](O)(C(=O)CO)Cc3c(O)c4c(c(O)c32)C(=O)c2ccccc2C4=O)[C@H](I)[C@H](O)[C@H]1O` [ANN, annamycin], the cardiotoxicity [2] is given as “less cardiotoxic” and the cross resistance [3] is given as “lack of cross resistance”.
For [Cl2(Me2SO)4Ru] [trans-form], the “rate of DNA binding” value ([4]; compared with the cis-form) is given as “binds more rapidly”.
For `CS(C)=O.CS(C)=O.CS(C)=O.CS(C)=O.[Cl][Ru][Cl]` [cis-form of [Cl2(Me2SO)4Ru], [Cl2(Me2SO)4Ru]], the “effect on conformation of B-DNA” value [4] is listed as “does not significantly affect the conformation of B-DNA” and the “effect on thermal stability of B-DNA” value [4] is listed as “increases its thermal stability”.
In the case of `COc1cccc2c1C(=O)c1c(O)c3c(c(O)c1C2=O)C[C@@](O)(C(=O)CO)C[C@@H]3O[C@H]1C[C@H](N)[C@H](O)[C@H](C)O1` [DOX, doxorubicin], the frequency of relapse [5] is listed as ≤ 50%.
With `O.[Cl][Ru][Cl].c1cnc2c(c1)ccc1cccnc12.c1cnc2c(c1)ccc1cccnc12.c1cnc2c(c1)ccc1cccnc12` [Dichlorotris(1,10-phenanthroline) ruthenium (II) hydrate] the phenanthroline groups damaged [6] was ~10^14 per ml.
